Experimental data as given in patent publication US20250268873A1, “COMBINATION OF DUAL ATM AND DNA-PK INHIBITORS AND IMMUNOTHERAPEUTIC AGENTS FOR USE IN CANCER THERAPY” (XRAD THERAPEUTICS, INC., priority 2021, published 2025).

Key:
[1] = target: ATM (Homo sapiens (Human), UniProt Q13315); test: Pharmacodynamic assay, pKAP1/KAP1 in MDA-231 tumors; format: in vivo
Description: FADU or MDA-MB-231 cells were harvested during log phase growth for in vivo implantation. The resuspended cells were washed three times in phosphate buffered saline (PBS) before preparing the working dilution in PBS. FADU cells were diluted to 1×10^7 cells/mL and MDA-MB-231 cells were diluted to 5×10^7 cells/mL. Each mouse was injected subcutaneously in the right flank with 100 μL of the cellular suspension. Tumor growth was monitored until the tumors reached a target volume of at least 100 mm^3, at which point mice were randomly stratified into four treatment groups.
Tumor studies were performed as follows. Mice bearing FADU or MDA-231 tumors were pre-dosed with vehicle alone or compound 569 alone at 3, 6, and 10 mg/kg. Tumors were then irradiated with 10 Gy 45 min after vehicle or compound 569 administration or left unirradiated (vehicle and compound 569 at 10 mg/kg). Tumors were harvested 1 h post radiation.
Tissue homogenates for pharmacodynamic analyses were collected and processed as follows. Tumor tissues from FADU or MDA-MB-231 tumors were flash frozen in liquid nitrogen and pulverized on dry ice using a tissue pulverizer. A portion of the tumor powder was transferred into a microtube, followed by addition of 500 μL of RIPA buffer [[…], pH 8.0, 150 mM NaCl, 0.1% SDS, 0.5% sodium deoxycholate, 1% IGEPAL® CA-630 (Sigma, I8896)]. To 10 ml of RIPA buffer, 2 tablets each of Protease inhibitor and Phosphatase inhibitor (Roche, #04693159001 & #04906837001), 200 μL of 0.1 M PMSF and 160 μL of Aprotinin, (Sigma, A6279) were added. The suspension was homogenized on ice with a pellet pestle motor (KONTES) and incubated on ice for 30 minutes. Cell lysates were centrifuged at 13,200 rpm for 15 min at 4° C. and supernatants were transferred to a new tube and analyzed for protein concentration with a BCA kit (Pierce, 23227), followed by immunoblotting.

[2] = test system: A549 cells; test: Clonogenic Survival Assay in A549 cells; format: cell-based, human; conditions: for Fold 2 Gy / Fold 4 Gy: vs DMSO; for % survival @ 0 Gy w/out IR: no IR
Description: (§1) Human cancer cell lines, including MCF-7 human breast carcinoma cell line and A549 human lung carcinoma cell line, and HCT116 p53 wild-type and HCT116 p53−/− cell lines were obtained from ATCC. MCF7 and HCT116 cells were cultured in Dulbecco's modified Eagle's medium (DMEM (Gibco #11995-065). MDA-MB-231 human triple negative breast cancer cell line and FADU, human head and neck squamous cell carcinoma line, were obtained from Charles River Laboratories (Morrisville, NC). MDA-MB-231 and A549 cells were cultured in RPMI 1640 medium (Gibco, 11875-093). FADU cells were cultured in Minimum Essential Medium α (MEM α) (Gibco, 12571-063) supplemented with 1 mM Sodium Pyruvate (Gibco, 11360-070), 1×MEM Non-Essential Amino Acids (Gibco, 11140-050). All cell lines were supplemented with 10% fetal bovine serum (FBS) (Corning, 35-010-CV) and 1× Antibiotic-Antimycotic (Gibco #15240-062) and were grown at 37° C. in 5% CO2. All cell lines were authenticated by short tandem repeat profiling and tested negative for mycoplasma.
(§2) This assay was performed with Compound 569 as an exemplary Formula (I) compound. Cells were plated in 6-well plates at different densities: 250 cells for no IR control, 5000 cells for 2 Gy of IR and 10000 cells for 4 Gy of IR and cultured overnight. The next day, MCF7 cells were preincubated with compound 569 at 100, 250, 500, or 1000 nM or DMSO for 30 min before being exposed to increasing doses of IR (0, 2, or 4 Gy). The A549 cells were incubated with Compound 569 at 500 or 1000 nM or with DMSO for 30 min before being exposed to increasing doses of IR (0, 2, or 4 Gy). After IR, cells were continuously incubated with DMSO or compound 569 for 5 h before the culture medium was removed and cells were washed with PBS. Cells were cultured in complete medium in the absence of inhibitor for 9 days. Then cells were stained (PBS, […], 0.1% crystal violet) rinsed with water and dried.

[3] = test system: MCF7 cells; test: Clonogenic Survival Assay in MCF7 cells; format: cell-based, human; conditions: for Fold 2 Gy / Fold 4 Gy: vs DMSO; for % survival @ 0 Gy w/out IR: no IR
Description: as §1, §2

Sequence of ATM (Q13315 whole entry): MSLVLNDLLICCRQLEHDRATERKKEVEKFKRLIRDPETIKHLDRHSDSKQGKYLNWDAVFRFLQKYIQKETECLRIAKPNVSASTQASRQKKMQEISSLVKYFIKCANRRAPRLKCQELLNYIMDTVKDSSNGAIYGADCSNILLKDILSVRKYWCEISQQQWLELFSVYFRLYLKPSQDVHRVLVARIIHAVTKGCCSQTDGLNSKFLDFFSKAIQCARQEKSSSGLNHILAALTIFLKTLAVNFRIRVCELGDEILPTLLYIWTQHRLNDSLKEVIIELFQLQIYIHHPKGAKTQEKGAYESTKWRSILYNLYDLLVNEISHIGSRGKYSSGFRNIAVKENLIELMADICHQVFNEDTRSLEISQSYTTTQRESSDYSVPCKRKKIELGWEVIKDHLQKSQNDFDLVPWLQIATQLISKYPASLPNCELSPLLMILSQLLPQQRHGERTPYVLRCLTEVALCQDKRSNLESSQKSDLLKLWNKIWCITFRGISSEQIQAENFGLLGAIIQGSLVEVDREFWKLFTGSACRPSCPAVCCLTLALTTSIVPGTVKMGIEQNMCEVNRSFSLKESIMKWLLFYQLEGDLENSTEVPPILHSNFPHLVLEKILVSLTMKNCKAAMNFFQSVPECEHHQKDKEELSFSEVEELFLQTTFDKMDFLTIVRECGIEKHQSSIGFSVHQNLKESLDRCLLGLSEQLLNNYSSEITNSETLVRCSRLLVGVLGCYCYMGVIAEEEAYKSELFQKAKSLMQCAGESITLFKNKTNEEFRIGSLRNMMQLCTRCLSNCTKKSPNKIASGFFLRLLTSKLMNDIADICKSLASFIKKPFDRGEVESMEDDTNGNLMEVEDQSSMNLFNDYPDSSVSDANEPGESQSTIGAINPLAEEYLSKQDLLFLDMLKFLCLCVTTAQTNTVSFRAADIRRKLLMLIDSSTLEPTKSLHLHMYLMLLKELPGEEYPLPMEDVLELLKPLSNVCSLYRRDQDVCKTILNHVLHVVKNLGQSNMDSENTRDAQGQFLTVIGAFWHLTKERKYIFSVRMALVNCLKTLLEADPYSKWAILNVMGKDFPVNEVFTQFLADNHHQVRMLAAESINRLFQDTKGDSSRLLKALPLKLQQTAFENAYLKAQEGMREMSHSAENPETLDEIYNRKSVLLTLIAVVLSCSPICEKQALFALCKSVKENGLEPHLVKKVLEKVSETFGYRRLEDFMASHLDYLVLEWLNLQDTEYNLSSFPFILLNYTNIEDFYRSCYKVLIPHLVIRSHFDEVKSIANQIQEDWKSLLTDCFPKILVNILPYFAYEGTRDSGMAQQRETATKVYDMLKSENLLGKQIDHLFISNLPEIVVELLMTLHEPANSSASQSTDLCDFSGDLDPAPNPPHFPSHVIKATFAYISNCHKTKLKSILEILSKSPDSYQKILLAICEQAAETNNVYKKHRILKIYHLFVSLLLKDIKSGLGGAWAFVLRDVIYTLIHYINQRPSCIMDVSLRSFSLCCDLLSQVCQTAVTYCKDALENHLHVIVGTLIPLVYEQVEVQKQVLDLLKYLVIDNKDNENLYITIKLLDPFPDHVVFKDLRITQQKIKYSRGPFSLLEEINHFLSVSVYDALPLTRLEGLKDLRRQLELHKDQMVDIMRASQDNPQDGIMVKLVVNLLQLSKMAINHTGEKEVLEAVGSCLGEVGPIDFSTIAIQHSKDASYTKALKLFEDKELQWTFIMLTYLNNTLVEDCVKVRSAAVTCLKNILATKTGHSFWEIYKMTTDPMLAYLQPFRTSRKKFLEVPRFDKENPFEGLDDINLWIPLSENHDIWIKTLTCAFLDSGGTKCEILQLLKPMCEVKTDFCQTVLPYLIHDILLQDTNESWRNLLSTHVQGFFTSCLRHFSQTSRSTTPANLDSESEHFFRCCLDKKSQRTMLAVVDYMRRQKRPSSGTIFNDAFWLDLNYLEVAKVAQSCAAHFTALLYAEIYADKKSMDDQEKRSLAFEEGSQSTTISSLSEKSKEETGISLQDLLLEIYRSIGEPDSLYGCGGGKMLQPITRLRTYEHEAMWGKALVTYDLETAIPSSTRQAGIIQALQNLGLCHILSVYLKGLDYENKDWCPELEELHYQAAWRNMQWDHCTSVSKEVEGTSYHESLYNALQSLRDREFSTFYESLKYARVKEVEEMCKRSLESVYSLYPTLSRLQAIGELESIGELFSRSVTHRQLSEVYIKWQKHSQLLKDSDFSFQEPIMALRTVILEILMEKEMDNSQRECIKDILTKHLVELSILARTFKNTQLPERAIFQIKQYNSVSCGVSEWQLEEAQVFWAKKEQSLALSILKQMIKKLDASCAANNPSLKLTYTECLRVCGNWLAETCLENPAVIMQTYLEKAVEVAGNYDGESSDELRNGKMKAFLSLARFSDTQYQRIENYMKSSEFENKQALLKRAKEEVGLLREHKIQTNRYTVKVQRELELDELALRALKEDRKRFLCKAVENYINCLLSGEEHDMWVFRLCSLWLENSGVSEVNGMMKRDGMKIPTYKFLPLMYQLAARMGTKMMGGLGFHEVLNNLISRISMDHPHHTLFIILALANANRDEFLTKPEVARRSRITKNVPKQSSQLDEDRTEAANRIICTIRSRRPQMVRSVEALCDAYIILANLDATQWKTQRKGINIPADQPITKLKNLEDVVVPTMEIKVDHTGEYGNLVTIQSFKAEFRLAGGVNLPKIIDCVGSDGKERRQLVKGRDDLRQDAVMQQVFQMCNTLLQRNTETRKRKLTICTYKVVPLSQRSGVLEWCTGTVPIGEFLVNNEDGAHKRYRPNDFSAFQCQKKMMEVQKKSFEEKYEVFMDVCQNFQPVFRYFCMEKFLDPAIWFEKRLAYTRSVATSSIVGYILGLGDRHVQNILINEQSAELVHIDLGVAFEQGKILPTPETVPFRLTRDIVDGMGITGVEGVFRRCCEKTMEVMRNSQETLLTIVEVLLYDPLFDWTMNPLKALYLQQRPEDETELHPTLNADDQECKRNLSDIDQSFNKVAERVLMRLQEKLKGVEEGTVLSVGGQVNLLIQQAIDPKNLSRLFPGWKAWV

CC(C)NCCOc1ncc(-c2cc3c4c(cnc3cc2F)N(C)C(=O)C42CCC2)cc1NS(C)(=O)=O [Compound 569, N-(5-(7′-Fluoro-3′-methyl-2′-oxo-2′,3′-dihydrospiro[cyclobutane-1,1′-pyrrolo[2,3-c]quinolin]-8′-yl)-2-(2-(isopropylamino)ethoxy)pyridin-3-yl)methanesulfonamide]
pKAP1/KAP1 ([1]; 10 Gy, 3 mg/kg oral): 0.327 | pKAP1/KAP1 ([1]; 10 Gy, 6 mg/kg oral): 0.0130 | pKAP1/KAP1 ([1]; 10 Gy, 10 mg/kg oral): 0.00901 | pKAP1/KAP1 ([1]; no radiation, 10 mg/kg oral): −0.00319 | cellular toxicity in the absence of IR ([2]; 5-h exposure): without evidence of cellular toxicity | radiosensitization ([2]; 5-h exposure, 500 and 1000 nM, 0, 2, 4 Gy): significant degree of radiosensitization | Clonogenic survival ratio 0 Gy ([2]; 569 500 nM): 1.000 | Clonogenic survival ratio 2 Gy ([2]; 569 500 nM): 0.0780 | Fold 2 Gy ([2]; 569 500 nM): 9.3 | Clonogenic survival ratio 4 Gy ([2]; 569 500 nM): 0.0044 | Fold 4 Gy ([2]; 569 500 nM): 64 | % survival @ 0 Gy w/out IR ([2]; 569 500 nM): 110% | Clonogenic survival ratio 0 Gy ([2]; 569 1000 nM): 1.000 | Clonogenic survival ratio 2 Gy ([2]; 569 1000 nM): 0.0520 | Fold 2 Gy ([2]; 569 1000 nM): 14 | Clonogenic survival ratio 4 Gy ([2]; 569 1000 nM): 0.0015 | Fold 4 Gy ([2]; 569 1000 nM): 188 | % survival @ 0 Gy w/out IR ([2]; 569 1000 nM): 103% | cellular toxicity in the absence of IR ([3]; 5-h exposure): without evidence of cellular toxicity | radiosensitization ([3]; 5-h exposure, 100-1000 nM, 0, 2, 4 Gy): significant degree of radiosensitization | Clonogenic survival ratio 0 Gy ([3]; 569 100 nM): 1.000 | Clonogenic survival ratio 2 Gy ([3]; 569 100 nM): 0.0882 | Fold 2 Gy ([3]; 569 100 nM): 7.5 | Clonogenic survival ratio 4 Gy ([3]; 569 100 nM): 0.0146 | Fold 4 Gy ([3]; 569 100 nM): 21.8 | % survival @ 0 Gy w/out IR ([3]; 569 100 nM): 92% | Clonogenic survival ratio 0 Gy ([3]; 569 250 nM): 1.000 | Clonogenic survival ratio 2 Gy ([3]; 569 250 nM): 0.0610 | Fold 2 Gy ([3]; 569 250 nM): 10.8 | Clonogenic survival ratio 4 Gy ([3]; 569 250 nM): 0.00588 | Fold 4 Gy ([3]; 569 250 nM): 54.0 | % survival @ 0 Gy w/out IR ([3]; 569 250 nM): 97% | Clonogenic survival ratio 0 Gy ([3]; 569 500 nM): 1.000 | Clonogenic survival ratio 2 Gy ([3]; 569 500 nM): 0.0451 | Fold 2 Gy ([3]; 569 500 nM): 14.7 | Clonogenic survival ratio 4 Gy ([3]; 569 500 nM): 0.00347 | Fold 4 Gy ([3]; 569 500 nM): 91.5 | % survival @ 0 Gy w/out IR ([3]; 569 500 nM): 105% | Clonogenic survival ratio 0 Gy ([3]; 569 1000 nM): 1.000 | Clonogenic survival ratio 2 Gy ([3]; 569 1000 nM): 0.0301 | Fold 2 Gy ([3]; 569 1000 nM): 22.0 | Clonogenic survival ratio 4 Gy ([3]; 569 1000 nM): 0.0016 | Fold 4 Gy ([3]; 569 1000 nM): 198 | % survival @ 0 Gy w/out IR ([3]; 569 1000 nM): 100%
